According to US5430023A, “Tripeptide antithrombotic agents” (Eli Lilly and Company, priority 1993, dated 1995):
Square brackets hold non-standard residues; d marks the D form. Peptide text beside a SMILES is read from it. * marks the point of attachment. dNMePhg = CN[C@@H](C(=O)O)c1ccccc1; dHpg = N[C@@H](C(=O)O)c1ccc(O)cc1; dChg = N[C@@H](C(=O)O)C1CCCCC1; dPhg = N[C@@H](C(=O)O)c1ccccc1; Boc = CC(C)(C)OC(=O)*

Key:
bovine thrombin [1] = biological target: T1, bovine thrombin (Bos taurus, UniProt P00735); assay: Thrombin time in buffer (fibrinogen instead of plasma); assay type: biochemical; conditions: Buffer (pH 7.5)
T1 construct: 25 μl of bovine thrombin solution (0.21 mg/ml of thrombostat powder); purchased thrombostat powder
Method: (§1) The anticoagulant activity of the compounds of the invention has been determined in standard tests. The following Table 2 presents the data obtained with representative compounds of the invention in tests used to determine prothrombin time, thrombin time and activated partial thromboplastin time (APTT). The numerical values in the table are the concentrations of the test compounds (ng/ml) required to prolong coagulation by 2-fold in the three tests. The thrombin time evaluation was carried out in plasma and separately determined in a buffer system at pH 7.5.
(§2) The data presented in Table 2 were obtained using a CoaScreener instrument from Tecan, Inc. in the assay protocols listed below.
In the Thrombin Time determined in pH 7.4 buffer fibrinogen was used instead of plasma.

bovine thrombin [2] = biological target: T1, bovine thrombin; assay: Plasma coagulation assay: thrombin time; assay type: biochemical
Method: as §1, §2
50 μl bovine thrombin (2 NIH

[3] = system: plasma coagulation (Actin, CaCl2); assay: Plasma coagulation assay: APTT (activated partial thromboplastin time); assay type: biochemical
Method: as §1, §2

bovine thrombin [4] = biological target: T1, bovine thrombin; assay: Inhibition of thrombin amidase activity (chromogenic substrate), bovine thrombin; assay type: biochemical; conditions: apparent equilibrium constant inhibitor-thrombin, mean over a range of concentrations
Method: The data in the table were obtained in an assay in which thrombin hydrolyzes the chromogenic substrate, N-benzoyl-D-phenylalanyl-L-valyl-L-arginyl-p-nitroanilide.
The assay was carried out in 50 μl buffer (0.03M Tris, 0.15M NaCl, pH 7.4) with 25 μl of bovine thrombin solution (0.21 mg/ml of thrombostat powder in 0.06M Tris, 0.3M NaCl, pH 7.4) and 150 μl of an aqueous solution of the chromogenic substrate at a concentration of 0.25 mg/ml. Solutions of test compound (25 μl) at various concentrations were added. […] Standard curves were constructed by plotting free thrombin concentration against hydrolysis rate. […] The amount of free inhibitor in each assay was calculated by subtracting the number of moles of bound thrombin from the number of moles of added inhibitor (test compound).
Kass was calculated for a range of concentrations of compounds and the mean value is reported in units of liter per mole.

[5] = system: plasma coagulation (thromboplastin); assay: Plasma coagulation assay: prothrombin time; assay type: biochemical
Method: The numerical values in the table are the concentrations of the test compounds (ng/ml) required to prolong coagulation by 2-fold in the three tests. The thrombin time evaluation was carried out in plasma and separately determined in a buffer system at pH 7.5.
as §2
50 μl thromboplastin (Dade)

[6] = system: arterial thrombosis in the carotid artery; assay: Ferric chloride induced arterial thrombosis in the carotid artery of the rat; assay type: in vivo; conditions: infusion from 15 min before to 60 min after FeCl3, NA = Not active at 4 mg/kg/h or at 7 mg/kg/h, the highest doses tested
Method: The antithrombotic activity of representative compounds of the invention was determined in in vivo tests carried out in the rat. The test employed induced arterial thrombosis in the carotid artery of the rat and measured the infusion dose of test compound required to maintain blood flow for fifty minutes past the time of occlusion. The test was performed as follows.
Arterial thrombosis was induced in the rat by injury of the carotid artery. Topical application of a ferric chloride solution was used to injure the vessel. Male Sprague-Dawley rats (375-450 g) were anesthetized with xylazine (20 mg/kg, s.c.) followed by ketamine HCl (100 mg/kg, s.c.). Animals were laid on a water blanket in which the circulated water was maintained at 37° C. The carotid artery was approached through a midline cervical incision. Careful blunt dissection was used to expose and isolate the vessel from the carotid sheath. A silk suture was pulled underneath the artery to lift the vessel to provide clearance to insert a thermocouple underneath it. […] Small forceps were used to dip discs (3 mm dia) of Whatman No. 1 filter paper into a FeCl3 solution (35%). The discs were cut to equal size using sharpened stainless steel tubing (3 mm i.d.) chucked in a drill press. A saturated disc was placed on each carotid artery above the thermocouple. The time between FeCl3 application and the time at which temperature decreased abruptly was recorded as time to occlusion (TTO) of the vessel. The average time required for both vessels to occlude was used to represent TTO for each animal.
Test compounds were dissolved in isotonic saline. […]
The association between vessel occlusion and the abrupt temperature decrease was established by simultaneously recording the temperature and blood flow on the same recorder. […] Baseline temperature and flow velocity (determined with a Directional Pulsed Doppler Flowmeter, Model 545-C, University of Iowa Bioengineering) were recorded before application of 35% ferric chloride. […]

Thrombin Time: concentration required to prolong coagulation by 2fold (bovine thrombin [1])	Thrombin Time: concentration required to prolong coagulation by 2fold (bovine thrombin [2])	Thrombin Amidase Kass × 10^6 (bovine thrombin [4])	Molecule	APTT: concentration required to prolong coagulation by 2fold [3]	Prothrombin Time: concentration required to prolong coagulation by 2fold [5]	ED50: infusion dose required to maintain blood flow for 50 min [6]
–	–	14 × 10^6 1/mole	CC(C)(C)OC(=O)NC(C(=O)N1CCCC1C(=O)NC(C=O)CCCN=C(N)N)c1cccs1 [Boc-D-2-thienylglycyl]	–	–	–
–	80 ng/mL	75 × 10^6 1/mole	COc1ccc([C@@H](NC(=O)OC(C)(C)C)C(=O)N2CCC[C@H]2C(=O)N[C@H](C=O)CCCNC(=N)N)cc1 [Boc-D-(4-methoxy)phenylglycyl]	640 ng/mL	–	–
112 ng/mL	320 ng/mL	18 × 10^6 1/mole	CC(C)(C)OC(=O)NC(C(=O)N1CCC[C@H]1C(=O)N[C@H](C=O)CCCNC(=N)N)c1cccc2ccccc12 (mixture of isomers) [Boc-DL-1-naphthylglycyl]	2272 ng/mL	1136 ng/mL	5.5 mg/kg/h
466 ng/mL	460 ng/mL	6 × 10^6 1/mole	COc1ccc2cc([C@@H](NC(=O)OC(C)(C)C)C(=O)N3CCC[C@H]3C(=O)N[C@H](C=O)CCCNC(=N)N)ccc2c1 [Boc-D-(6-methoxy)-2-naphthylglycyl]	2239 ng/mL	35489 ng/mL	–
60 ng/mL	79 ng/mL	120 × 10^6 1/mole	CC(C)(C)OC(=O)N[C@@H](C(=O)N1CCC[C@H]1C(=O)N[C@H](C=O)CCCNC(=N)N)C1CCCCC1 [Boc-D-cyclohexylglycyl] (Boc-[dChg]-Pro-Arg-aldehyde)	748 ng/mL	522 ng/mL	–
–	182 ng/mL	115 × 10^6 1/mole	CC(=O)O.CC(=O)O.CC(C)(C)OC(=O)N[C@@H](C(=O)N1CCC[C@H]1C(=O)N[C@H](C=O)CCCNC(=N)N)c1ccc(O)cc1 [Boc-D-(4-hydroxy)phenylglycyl, N-Boc-D-(4-hydroxyphenylglycyl)-Pro-Arg-H diacetate] (Boc-[dHpg]-Pro-Arg-aldehyde)	1091 ng/mL	1636 ng/mL	–
–	–	6 × 10^6 1/mole	Cl.N=C(N)NCCC[C@@H](C=O)NC(=O)[C@@H]1CCCN1C(=O)[C@H]1Cc2ccccc2C(=O)N1 [D-1,2,3,4-tetrahydroisoquinolin-1-keto-3-carbonyl-L-prolyl-L-arginine aldehyde (hydrochloride)]	–	–	–
–	–	44 × 10^6 1/mole	CC(C)(C)OC(=O)NC(C(=O)N1CCCC1C(=O)NC(C=O)CCCN=C(N)N)c1ccc(F)cc1 [Boc-D-Phg(4-Fluoro)]	–	–	–
–	–	21 × 10^6 1/mole	CC(C)(C)OC(=O)NC(Cc1ccccc1)C(=O)N1CCCC1C(=O)NC(C=O)CCCN=C(N)N [Boc-D-phenylalanyl, reference compound]	–	–	–
142 ng/mL	230 ng/mL	22 × 10^6 1/mole	CC(=O)O.CC(=O)O.CC(C)(C)OC(=O)N[C@@H](C(=O)N1CCC[C@H]1C(=O)N[C@H](C=O)CCCNC(=N)N)c1ccc2ccccc2c1 [Boc-D-2-naphthylglycyl, N-Boc-D-2-naphthylglycyl-Pro-Arg-H diacetate]	1200 ng/mL	1200 ng/mL	–
–	91 ng/mL	75 × 10^6 1/mole	N=C(N)NCCC[C@@H](C=O)NC(=O)[C@@H]1CCCN1C(=O)[C@H](N)c1ccccc1 [D-Phenylglycyl] (H-[dPhg]-Pro-Arg-aldehyde)	–	–	–
67 ng/mL	92 ng/mL	80 × 10^6 1/mole	CN[C@@H](C(=O)N1CCC[C@H]1C(=O)N[C@H](C=O)CCCNC(=N)N)c1ccccc1 [N^α -Methyl-D-phenylglycyl (sulfate), N-methyl-D-phenylglycyl-L-prolyl-L-arginine aldehyde] (H-[dNMePhg]-Pro-Arg-aldehyde)	> 909 ng/mL	899 ng/mL	–
–	460 ng/mL	15 × 10^6 1/mole	COc1ccc([C@@H](NC(C)=O)C(=O)N2CCC[C@H]2C(=O)N[C@H](C=O)CCCNC(=N)N)cc1 [Acetyl-D-(4-methoxy)phenylglycyl]	2600 ng/mL	900 ng/mL	–

Molecule	Thrombin Time: concentration required to prolong coagulation by 2fold (bovine thrombin [1])	Thrombin Time: concentration required to prolong coagulation by 2fold (bovine thrombin [2])	Thrombin Amidase Kass × 10^6 (bovine thrombin [4])	APTT: concentration required to prolong coagulation by 2fold [3]	Prothrombin Time: concentration required to prolong coagulation by 2fold [5]	ED50: infusion dose required to maintain blood flow for 50 min [6]
CO[C@@H](C(=O)N1CCC[C@H]1C(=O)N[C@H](C=O)CCCNC(=N)N)c1ccccc1 [(R)-α-Methoxyphenylacetyl]	173 ng/mL	139 ng/mL	4 × 10^6 1/mole	> 909 ng/mL	–	–
N^α -acetyl-1-aminocyclohexane-1-carbonyl-L-prolyl-L-arginine Aldehyde (Hydrochloride)	–	–	0.2 × 10^6 1/mole	–	–	–
N^α -ethylcarbamate-1-amino-1-cyclohexane-carbonyl-L-prolyl-L-arginine Aldehyde (Hydrochloride)	–	–	1.5 × 10^6 1/mole	–	–	–
CC(C)(C)OC(=O)N[C@@H](C(=O)N1CCC[C@H]1C(=O)N[C@H](C=O)CCCNC(=N)N)c1ccccc1.CC(C)(C)OC(=O)N[C@@H](C(=O)N1CCC[C@H]1C(=O)N[C@H](C=O)CCCNC(=N)N)c1ccccc1.O=S(=O)(O)O [Boc-D-phenylglycyl (sulfate salt), N-Boc-D-Phenylglycyl-L-Prolyl-L-Arginine aldehyde (Boc-D-Phg-Pro-Arg-H) hemisulfate] (Boc-[dPhg]-Pro-Arg-aldehyde)	–	–	107 × 10^6 1/mole	–	–	–
N=C(N)NCCC[C@@H](C=O)NC(=O)[C@@H]1CCCN1C(=O)[C@@H]1NCCc2ccccc21.O=S(=O)(O)O [D-1,2,3,4-Tetrahydroisoquinolin-1-carbonyl-L-Prolyl-L-Arginine Aldehyde Sulfate]	–	–	113 × 10^6 1/mole	–	–	–
N=C(N)NCCC[C@@H](C=O)NC(=O)[C@@H]1CCCN1C(=O)[C@H]1CC2CCCCC2CN1.O=S(=O)(O)O (stereo partly drawn) [D-1,2,3,4,6,7,8-Perhydroisoquinolin-3-carbonyl-L-prolyl-L-arginal (sulfate)]	–	–	25 × 10^6 1/mole	–	–	–
CC[C@@H](C(=O)N1CCC[C@H]1C(=O)N[C@H](C=O)CCCNC(=N)N)c1ccccc1 [(R)-α-Ethylphenylacetyl]	–	115 ng/mL	7 × 10^6 1/mole	–	–	–
